The nature of experiment [1]: Inhibition of TNFalpha-stimulated NFkappaB (unknown origin) expressed in mouse NIH-3T3-KBFLuc cells at 50 uM after 6 hrs by luciferase reporter gene assay relative to control. Type of experiment: cell-based. Particulars: Homo sapiens. On the technique in general: In a reporter assay the amount or activity of a reporter protein is the signal.
Experiment [2] concerns the target T1, Nuclear factor erythroid 2-related factor 2 (Homo sapiens) (UniProt Q16236).
T1 sequence (whole entry): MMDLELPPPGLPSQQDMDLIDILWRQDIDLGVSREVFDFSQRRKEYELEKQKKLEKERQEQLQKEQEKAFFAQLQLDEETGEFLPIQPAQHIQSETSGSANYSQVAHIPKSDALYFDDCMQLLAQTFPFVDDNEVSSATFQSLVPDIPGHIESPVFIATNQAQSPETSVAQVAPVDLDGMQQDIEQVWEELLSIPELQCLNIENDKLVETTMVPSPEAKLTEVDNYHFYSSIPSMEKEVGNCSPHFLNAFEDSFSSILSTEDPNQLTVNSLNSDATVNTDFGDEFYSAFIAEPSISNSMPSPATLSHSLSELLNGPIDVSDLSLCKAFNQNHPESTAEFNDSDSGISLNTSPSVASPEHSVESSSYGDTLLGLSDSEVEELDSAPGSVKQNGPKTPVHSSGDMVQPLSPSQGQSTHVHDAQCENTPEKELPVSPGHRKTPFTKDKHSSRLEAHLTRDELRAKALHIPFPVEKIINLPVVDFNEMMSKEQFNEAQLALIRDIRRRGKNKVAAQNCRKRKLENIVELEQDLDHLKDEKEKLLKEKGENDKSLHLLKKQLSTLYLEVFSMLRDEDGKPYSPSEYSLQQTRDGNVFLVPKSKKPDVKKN
The experiment in a line: Activation of Nrf2 in human HaCaT-ARE-Luc cells at 50 uM after 6 hrs by luciferase reporter gene assay relative to control. In kind it is cell-based.

Experiment [3] has as its target Signal transducer and activator of transcription 3 (Homo sapiens) (UniProt P40763). The experiment in a line: Inhibition of IFNgamma-stimulated STAT3 (unknown origin) activation expressed in human HeLa cells at 50 uM after 6 hrs by luciferase reporter gene assay relative to control. Type of experiment: cell-based.
A further experiment has as its system U-251. The experiment can be described thus: Antiproliferative activity against human U251 cells at 50 uM after 48 hrs by sulforhodamine B assay relative to control. In kind it is functional. Particulars: for inhibition at 50 µM: U-251, 48 h. (Sulforhodamine B stains cellular protein and so reports cell mass.)
Experiment [4] has as its system PC-3. The experiment can be described thus: Antiproliferative activity against human PC3 cells at 50 uM after 48 hrs by sulforhodamine B assay relative to control. Type of experiment: functional. Particulars: PC-3, 48 h.
A further experiment concerns K562. The experiment in a line: Antiproliferative activity against human K562 cells at 50 uM after 48 hrs by sulforhodamine B assay relative to control. In kind it is functional. Particulars: for inhibition at 50 µM: K562, 48 h.
The test system of another experiment is HCT-15. The experiment in a line: Antiproliferative activity against human HCT15 cells at 50 uM after 48 hrs by sulforhodamine B assay relative to control. In kind it is functional. Particulars: for inhibition at 50 µM: HCT-15, 48 h.
Another experiment concerns MCF7. The experiment can be described thus: Antiproliferative activity against human MCF7 cells at 50 uM after 48 hrs by sulforhodamine B assay relative to control. In kind it is functional. Particulars: MCF7, 48 h.
In a further experiment the test system is SK-LU-1. The experiment in a line: Antiproliferative activity against human SK-LU-1 cells at 50 uM after 48 hrs by sulforhodamine B assay relative to control. Type of experiment: functional. Particulars: for inhibition at 50 µM: SK-LU-1, 48 h.
Experiment [5] relates to PC-3. The experiment in a line: Antiproliferative activity against human PC3 cells after 48 hrs by sulforhodamine B assay. In kind it is functional, cell-based. Particulars: PC-3, 48 h.

Molecules are shown by their SMILES. The source made the active and inactive calls. The calls are words filed in the database; no cut-off is given here.

Sequence of Signal transducer and activator of transcription 3 (Homo sapiens) (P40763 whole entry): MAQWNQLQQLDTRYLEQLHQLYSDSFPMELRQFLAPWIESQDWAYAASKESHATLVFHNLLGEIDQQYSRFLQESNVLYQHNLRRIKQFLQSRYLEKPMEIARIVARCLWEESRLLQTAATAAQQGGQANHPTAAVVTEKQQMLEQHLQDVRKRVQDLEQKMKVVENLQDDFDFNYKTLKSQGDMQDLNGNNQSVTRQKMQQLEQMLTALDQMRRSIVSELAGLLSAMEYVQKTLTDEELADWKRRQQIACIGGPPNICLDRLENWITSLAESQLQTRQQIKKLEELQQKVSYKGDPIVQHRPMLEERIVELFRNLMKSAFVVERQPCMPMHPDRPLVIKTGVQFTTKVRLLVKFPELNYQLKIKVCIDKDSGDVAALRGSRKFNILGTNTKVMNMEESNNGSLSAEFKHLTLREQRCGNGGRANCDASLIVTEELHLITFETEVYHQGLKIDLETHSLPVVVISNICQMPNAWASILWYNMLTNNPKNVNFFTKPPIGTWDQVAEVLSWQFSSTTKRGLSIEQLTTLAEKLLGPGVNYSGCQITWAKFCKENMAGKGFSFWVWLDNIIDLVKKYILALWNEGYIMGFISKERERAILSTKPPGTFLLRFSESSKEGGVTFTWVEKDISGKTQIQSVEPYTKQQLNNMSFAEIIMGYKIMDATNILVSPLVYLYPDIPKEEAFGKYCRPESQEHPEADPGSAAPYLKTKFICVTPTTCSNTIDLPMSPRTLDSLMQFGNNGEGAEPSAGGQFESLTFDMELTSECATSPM

As to `Cc1cc2c(C(C)C)ccc(C)c2cc1OC(=O)c1ccccc1`, the inhibition turned out to be 34.5% in experiment [1] and 0.5% in [3]. In [2], this compound gave a fold change (FC) of 1.9. The inhibition at 50 µM in the experiment with U-251 was 41.5%; in the experiment on PC-3 [4], 21.2%; with K562 it was 44.3%; with HCT-15, 72%; in the experiment with MCF7, 51%; in the experiment with SK-LU-1, 63%.
`CC1=CC[C@H](C(C)C)c2cc(C)c(OC(=O)c3ccc(Cl)cc3)cc21`: the inhibition stood at 36.1% in experiment [1] and 2.7% in [3]. Also, the fold change (FC) in experiment [2] came to 1.3. Besides, the inhibition at 50 µM in the experiment on U-251 worked out at 25.6%; with PC-3 [4] it was 34.1%; in the experiment with K562, 58.9%; in the experiment with HCT-15, 47.4%; in the experiment with MCF7 it was 79.7%; with SK-LU-1, 17.4%.
As to `Cc1cc2c(C(C)C)ccc(C)c2cc1OC(=O)c1cccc(C(F)(F)F)c1`, the inhibition was found to be 4.8% in [1] and 2.7% in experiment [3]. The same compound registered a fold change (FC) in [2] of 1.9. The inhibition entry with U-251, in the experiment on K562 and with HCT-15 was “inactive” each time. The inhibition at 50 µM was 26.7% in the experiment on PC-3 [4], 41.5% in the experiment on MCF7 and 17.3% in the experiment on SK-LU-1.
With `CC1=CC[C@H](C(C)C)c2cc(C)c(OC(=O)c3ccc(C(F)(F)F)cc3)cc21`, the inhibition in experiment [1] stood at 25.4%; in experiment [3], 2.5%. Also, in experiment [2], the fold change (FC) was 1.6. Further, the inhibition at 50 µM in the experiment on U-251 amounted to 14.7%; with PC-3 [4], 12.3%; in the experiment with K562 it was 9%; in the experiment on HCT-15 it was 6.4%; with MCF7, 40.4%. Further, the inhibition result in the experiment on SK-LU-1 is “inactive”.
For the compound `Cc1ccc2c(c1)C(=O)C(C(C)C)=C[C@@]2(C)O`, the inhibition in experiment [1] was 11.1%; in experiment [3], 2.4%. The fold change (FC) in [2] came to 1.7.
For `CC1=C[C@](O)(C(C)C)C(=O)c2cc(C)c(O)cc21`, in that order: 28.8%, 2.2% and 1.3.
For `CC(C)[C@H]1CC[C@@](C)(O)c2ccc(C(=O)O)cc21`, in that order: 6.7%, 3.8% and 1.7.
Take `Cc1cc2c(C(C)C)ccc(C=O)c2cc1O`: the inhibition was found to be 40.1% in [1] and 3.5% in experiment [3]. This compound registered a fold change (FC) in experiment [2] of 1.6.
As for `COc1ccc(C(=O)Oc2cc3c(cc2C)[C@@H](C(C)C)CC=C3C)cc1`, the inhibition was 49.2% in [1] and 1.8% in experiment [3]. The compound also showed a fold change (FC) in [2] of 1.9. Further, the inhibition at 50 µM stood at 37% in the experiment with U-251; 60.6% in the experiment on PC-3 [4]; 46.5% in the experiment with K562; 30.8% in the experiment with HCT-15; 80.1% with MCF7; 18.6% with SK-LU-1. For the same compound, in the experiment with PC-3 [5], 32.2 µM corresponded to half-maximal inhibition (IC50).
As to `COc1cccc(C(=O)Oc2cc3c(cc2C)[C@@H](C(C)C)CC=C3C)c1`, the inhibition in [1] is 41.2%; in [3], 3.3%. This compound also gave a fold change (FC) in experiment [2] of 1.6. The inhibition entry with U-251, in the experiment with K562 and with HCT-15 was “inactive” throughout. The values for the inhibition at 50 µM in the experiment on PC-3 [4], in the experiment with MCF7 and with SK-LU-1 were 16.3%, 11.9% and 24.2%, respectively.
As for `CC1=CC[C@H](C(C)C)c2cc(C(=O)O)ccc21`, the results for the inhibition in experiment [1] and in experiment [3] were 7.3% and 2.9%, respectively. The same compound came in with a fold change (FC) in experiment [2] of 1.8.
As to `CC1=CC[C@H](C(C)C)c2cc(C)c(OC(=O)c3cccc([N+](=O)[O-])c3)cc21`, the inhibition in experiment [1] is 3.5%; in [3], 3.2%. This compound displayed a fold change (FC) in [2] of 1.5. Further, the inhibition at 50 µM amounted to 44% with U-251; 36.9% in the experiment on PC-3 [4]; 15.9% in the experiment with K562; 45.9% in the experiment on HCT-15; 29.3% in the experiment with MCF7; 60.4% with SK-LU-1.
Take `CC1=CC[C@H](C(C)C)c2cc(C)c(OC(=O)c3cccc(C)c3)cc21`: the results for the inhibition in experiment [1] and in [3] were 44.2% and 2.3%, respectively. Further, the fold change (FC) in experiment [2] amounted to 1.7. The inhibition at 50 µM in the experiment with U-251 is 16.8%; in the experiment with PC-3 [4] it was 38.6%; in the experiment with HCT-15, 5.3%; with MCF7, 54.9%. The inhibition result in the experiment on K562 and with SK-LU-1 was “inactive” each time.
On to `COc1cccc(C(=O)Oc2cc3c(C)ccc(C(C)C)c3cc2C)c1`, for which the inhibition in experiment [1] was determined as 2.8%; in experiment [3], 0.8%. Further, the fold change (FC) in experiment [2] stood at 1.5. Moreover, the inhibition result in the experiment on U-251 is “inactive”. The inhibition at 50 µM in the experiment with PC-3 [4] was 12.5%; in the experiment with K562, 14.2%; with HCT-15, 35.2%; with MCF7 it was 31.8%; with SK-LU-1 it was 30.6%.
As for `CC1=CC[C@H](C(C)C)c2cc(C)c(OC(=O)c3cccc(C(F)(F)F)c3)cc21`, the values for the inhibition in experiment [1] and in [3] were 4.4% and 1.7%, respectively. For the same compound, the fold change (FC) in experiment [2] stood at 1.9. The inhibition at 50 µM in the experiment with U-251 came to 29.3%; with PC-3 [4], 25.4%; in the experiment on K562, 45.5%; with HCT-15, 15%; in the experiment on MCF7 it was 86%; with SK-LU-1, 18.3%.
Turning to `COc1ccc(C(=O)Oc2cc3c(C)ccc(C(C)C)c3cc2C)cc1`, the values for the inhibition in [1] and in [3] were 26.9% and 2.5%, respectively. Also, in experiment [2], the fold change (FC) stood at 1.3. For the same compound, the inhibition at 50 µM was 42.6% with U-251; 10.4% with PC-3 [4]; 88.6% in the experiment on K562; 84% with HCT-15; 93.4% with MCF7; 32.8% with SK-LU-1.
As to `CC1=C2CCC(C(=O)O)=C[C@@H]2[C@@H](C(C)C)CC1`, the values for the inhibition in [1] and in experiment [3] were 5.9% and 3.8%, respectively. Also, the fold change (FC) in experiment [2] was 1.4.
For `COc1c(C(C)C)cc(C)c2ccc(C)cc12`, in that order: 26.5%, 0.9% and 1.9.
The corresponding values for `CC1=CC[C@H](C(C)C)[C@H]2C=C(C(=O)O)CC=C12` are 12.3%, 3.6% and 1.9.
On to `Cc1cc2c(C(C)C)ccc(C)c2cc1OC(=O)c1cccc(Cl)c1`, for which the inhibition in [1] was determined as 25.6%; in experiment [3] it was 1.8%. This compound also registered a fold change (FC) in experiment [2] of 1.7. Also, the inhibition at 50 µM in the experiment with U-251 was determined as 0.8%; in the experiment on PC-3 [4], 4.2%; with MCF7 it was 11.4%; with SK-LU-1 it was 11.6%. Besides, the inhibition entry in the experiment with K562 and with HCT-15 was “inactive” throughout.
As for `CC1=CC[C@H](C(C)C)c2cc(C)c(OC(=O)c3ccccc3)cc21`, the inhibition in experiment [1] was found to be 47.2%; in experiment [3], 2.4%. The compound also yielded a fold change (FC) in [2] of 6.6. Moreover, the inhibition at 50 µM in the experiment on U-251 came out at 25.8%; with PC-3 [4] it was 22.5%; with HCT-15 it was 49.5%; with MCF7, 60.7%; in the experiment with SK-LU-1, 37%. For the same compound, in the experiment with K562, the inhibition result was “inactive”.
With `CC1=CC[C@H](C(C)C)c2cc(C)c(OC(=O)c3cccc(Cl)c3)cc21`, the inhibition was 22.5% in [1] and 1.5% in experiment [3]. This compound gave a fold change (FC) in experiment [2] of 1.4. Also, the inhibition at 50 µM is 0.9% in the experiment with U-251; 23.4% with PC-3 [4]; 5.3% in the experiment on HCT-15; 40.4% with MCF7; 30.6% with SK-LU-1. For the same compound, the inhibition entry in the experiment with K562 is “inactive”.

Usually inhibition stands for the drop in the measured response relative to a control, in per cent. Usually IC50 stands for the midpoint of a concentration-inhibition curve. A low value points to greater potency in that assay.

The values above are taken from ChEMBL document CHEMBL4033638, “Effect of natural and semi-synthetic cadinanes from Heterotheca inuloides on NF-κB, Nrf2 and STAT3 signaling pathways and evaluation of their in vitro cytotoxicity in human cancer cell lines” (Bioorg Med Chem, 2017).
